Measured values published in patent US20110105389A1 (priority 2009, published 2011).

Target: T1, GHS-R1a receptor (HEK293 cells expressing GHS-R1a receptor) (Homo sapiens, UniProt Q92847)
T1 construct: host or cells: HEK293
Assay: Fluorescence functional assay (ghrelin receptor), Method B2, agonist and antagonist mode
Format: cell-based
Conditions: functional activity as an antagonist at the ghrelin receptor, Methods B2 and B3
Protocol: • 1. ImageTrak Epi-Fluorescence system (Perkin-Elmer) • 2. MultiDrop TiterTek • 3. CO2 incubators: 5% CO2, humidified, 37° C.
• 1. Hanks' BSS without phenol red (Life Technologies) • 2. Hepes buffer • 3. Probenecid (Sigma) • 4. […] Falcon cell culture 96-well black/clear bottom plates • 6. 0.05% trypsin-EDTA • 7. Cells: HEK293 cells expressing GHS-R1a receptor (Perkin-Elmer BioSignal) were grown in DMEM (Dulbecco's Modified Eagles Medium) with 10% FBS, 1% sodium pyruvate, 1% NEAA and 400 μg/mL geneticin • 8. […] [D-Lys^3]-GHRP-6 (reference antagonist, Phoenix #031-22) • 10. Assay buffer: HBSS-20 mM Hepes containing 2.5 mM probenecid and 0.1% BSA (bovine serum albumin); pH 7.4
Stock solutions of compounds (10 mM in 100% DMSO) were provided frozen on dry ice and stored at −80° C. prior to use. […] Assay plates were then prepared by appropriate dilution in assay buffer.
Typical Final Test Concentrations (N=10) for Test Compounds (agonist):
Typical Final Test Concentrations (N=10) for Test Compounds (antagonist):
Cells were maintained in culture as indicated above. The cells were harvested at a confluency of 70-90% the day before the experiment. Growth medium was removed and the cells rinsed briefly with PBS without Ca^+2 and Mg^+2. 0.05% Trypsin was added and the plates incubated at 37° C. for 5 min to detach the cells. DMEM medium supplemented with 10% FBS was added to inactivate the trypsin and determine the cell concentration. The inoculum was adjusted to a final concentration of 200 cells/μL and dispensed at 200 μL per well into a 96-well block plate. The plates were, incubated at 37° C. overnight.
The plates were removed from the incubator and the media removed by inversion of the plates. Calcium-3 dye, 50 μL, was loaded and then incubated for 1 h at 37° C. The plate was again inverted and then 25 μL of assay buffer added. The plates were then transferred to the ImageTrak system for analysis. For agonist testing, after reading for ten (10) sec, 25 μL of 2× test compound or control was injected into the assay plate. Fluorescence was monitored for an additional 50 sec. A reading was taken every two (2) seconds for a total of 30 readings per assay point.
For antagonist testing, after reading for ten (10) sec, 12.5 μL of 3× test compound or control was injected into the assay plate and allowed to react for three (3) min.
Concentration response curves were analyzed using GraphPad Prism (GraphPad Software, San Diego, Calif.) by non-linear regression analysis (sigmoidal dose-response). EC50 values are calculated using GraphPad.
Emax values were calculated using the following formula: […]
Concentration response curves were analyzed using GraphPad Prism (GraphPad Software, San Diego, Calif.) by non-linear regression analysis (sigmoidal dose-response). IC50 values are calculated using GraphPad.
Imax values were calculated using the following formula: […]

T1 sequence (Q92847 whole entry): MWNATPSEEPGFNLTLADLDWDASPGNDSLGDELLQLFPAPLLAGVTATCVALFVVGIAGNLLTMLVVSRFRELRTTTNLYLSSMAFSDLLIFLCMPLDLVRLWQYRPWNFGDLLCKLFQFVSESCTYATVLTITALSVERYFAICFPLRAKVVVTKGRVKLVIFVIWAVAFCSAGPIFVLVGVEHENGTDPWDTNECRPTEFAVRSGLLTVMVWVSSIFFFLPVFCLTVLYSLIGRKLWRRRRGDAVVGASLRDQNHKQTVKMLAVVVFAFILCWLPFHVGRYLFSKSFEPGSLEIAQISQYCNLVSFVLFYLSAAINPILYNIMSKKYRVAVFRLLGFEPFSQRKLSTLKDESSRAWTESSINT

Compound	Antagonist Activity
CCC(C)[C@@H]1NCCOc2ccccc2/C=C/CNC(=O)[C@@H](Cc2cccc(O)c2)NC(=O)[C@H](C(C)O)N(C)C1=O (some centres unmarked) [Compound 1351]	C (C = 10-100 nM)
CC(C)[C@@H]1NCCOc2cc(F)ccc2CCCNC(=O)[C@@H](Cc2ccccc2)NC(=O)[C@H](C(C)O)N(C)C1=O (some centres unmarked) [Compound 1363]	C (C = 10-100 nM)
CC(C)[C@@H]1NCCOc2cc(F)ccc2CCCNC(=O)[C@@H](Cc2cccc(F)c2)NC(=O)[C@H](C(C)O)N(C)C1=O (some centres unmarked) [Compound 1366]	B (B = 1-10 nM)

Second part, the molecule after the results:

Antagonist Activity	Compound
C (C = 10-100 nM)	CC(C)[C@@H]1NCCOc2ccccc2CC[C@@H](C)NC(=O)[C@@H](Cc2cccc(O)c2)NC(=O)[C@H](C(C)O)N(C)C1=O (some centres unmarked) [Compound 1352]
B (B = 1-10 nM)	CC(C)[C@@H]1NCCOc2ccccc2CC[C@@H](C)NC(=O)[C@@H](Cc2ccccc2)NC(=O)[C@H](C(C)O)N(C)C1=O (some centres unmarked) [Compound 1361]
C (C = 10-100 nM)	CC(O)[C@H]1C(=O)N[C@H](Cc2ccccc2)C(=O)N[C@H](C)CCc2ccccc2OCCN[C@@H](C(C)(C)C)C(=O)N1C (some centres unmarked) [Compound 1370]
B (B = 1-10 nM)	CC(C)[C@@H]1NCCOc2ccc(F)cc2CC[C@@H](C)NC(=O)[C@@H](Cc2ccccc2)NC(=O)[C@H](C(C)O)N(C)C1=O (some centres unmarked) [Compound 1380]
B (B = 1-10 nM)	CC(C)[C@@H]1NCCOc2cccc(F)c2CC[C@@H](C)NC(=O)[C@@H](Cc2ccccc2)NC(=O)[C@H](C(C)O)N(C)C1=O (some centres unmarked) [Compound 1381]
B (B = 1-10 nM)	CC(C)[C@@H]1NCCOc2ccccc2CC[C@@H](C)NC(=O)[C@@H](Cc2ccc(O)c(Cl)c2)NC(=O)[C@H](C(C)O)N(C)C1=O (some centres unmarked) [Compound 1383]
C (C = 10-100 nM)	CC(C)[C@@H]1NCCOc2ccccc2CC[C@@H](C)NC(=O)[C@@H](Cc2cccnc2)NC(=O)[C@H](C(C)O)N(C)C1=O (some centres unmarked) [Compound 1384]
D (D = 100-500 nM)	CCC[C@@H]1NCCOc2ccccc2CC[C@@H](C)NC(=O)[C@@H](Cc2ccccc2)NC(=O)[C@H](C(C)O)N(C)C1=O (some centres unmarked) [Compound 1394]
B (B = 1-10 nM)	CC1CCc2ccccc2OCCNC(C(C)C)C(=O)N(C)C(C(C)O)C(=O)NC(Cc2ccccc2O)C(=O)N1 (centres unmarked) [Compound 1401]
B (B = 1-10 nM)	CC(C)[C@@H]1NCCOc2ccccc2CC[C@@H](C(F)(F)F)NC(=O)[C@@H](Cc2ccccc2)NC(=O)[C@H](C(C)O)N(C)C1=O (some centres unmarked) [Compound 1402]
B (B = 1-10 nM)	CC(C)[C@@H]1NCCOc2ccccc2CC[C@@H](C)NC(=O)[C@@H]([C@H](C)c2ccccc2)NC(=O)[C@H](C(C)O)N(C)C1=O (some centres unmarked) [Compound 1404]
B (B = 1-10 nM)	CC(C)[C@@H]1NCCOc2ccccc2CC[C@@H](C)NC(=O)[C@@H](Cc2cc(F)c(F)c(F)c2)NC(=O)[C@H](C(C)O)N(C)C1=O (some centres unmarked) [Compound 1411]
A (A <1 nM)	CC(C)[C@@H]1NCCOc2ccccc2CC[C@@H](C)NC(=O)[C@@H](Cc2csc3ccccc23)NC(=O)[C@H](C(C)O)N(C)C1=O (some centres unmarked) [Compound 1416]
B (B = 1-10 nM)	CC(C)[C@@H]1NCCOc2ccc(F)cc2CC[C@@H](C)NC(=O)[C@@H](Cc2ccc(F)cc2)NC(=O)[C@H](C(C)O)N(C)C1=O (some centres unmarked) [Compound 1436]

Target: T2, human ghrelin receptor (GRLN, growth hormone secretagogue receptor, hGHS-R1a) (Homo sapiens, UniProt Q92847)
T2 construct: purchased PerkinElmer BioSignal #RBHGHSM, lot#1887; host or cells: HEK-293 cells, stably transfected (membranes)
Assay: Competitive radioligand binding assay (ghrelin receptor), Method B1
Conditions: Ghrelin receptor binding activity, Method B1
Protocol: Multiscreen Harvest plates-GF/C (Millipore, #MAHFC1H60) • 4. […] Bottom seal (Millipore, #MATAH0P00) • 7. […] Binding Buffer: 25 mM Hepes (pH 7.4), 1 mM CaCl2, 5 mM MgCl2. 2.5 mM EDTA, 0.4% BSA
Competition experiments were performed in a 300 μl filtration assay format. • 1. 220 μL of membranes diluted in binding buffer • 2. 40 μL of compound diluted in binding buffer • 3.
Compounds were provided frozen on dry ice at a stock concentration of 10 mM diluted in 100% DMSO and stored at −80° C. until the day of testing. On the test day, compounds were allowed to thaw at rt overnight and then diluted in assay buffer according to the desired test concentrations. Under these conditions, the maximal final DMSO concentration in the assay was 0.1%.
Plates were sealed with TopSeal-A, vortexed gently and incubated at rt for 30 min. The reaction was arrested by filtering samples through Multiscreen Harvest plates (pre-soaked in 0.5% polyethyleneimine) using a Tomtec Harvester, washed 9 times with 500 μL of cold 50 mM Tris-HCl (pH 7.4, 4° C.), and then plates were air-dried in a fumehood for 30 min. A bottom seal was applied to the plates prior to the addition of 25 μL of MicroScint-0 to each well. Plates were than sealed with TopSeal-A and counted for 30 sec per well on a TopCount Microplate Scintillation and Luminescence Counter (PerkinElmer) using a count delay of 60 sec. Results were expressed as counts per minute (cpm).
Data were analyzed by GraphPad Prism (GraphPad Software, San Diego, Calif.) using a variable slope non-linear regression analysis. […] Dmax values were calculated using the following formula: […]

T2 sequence (Q92847 whole entry): as above

Compound	IC50 [nM]
CC[C@@H]1CCc2c(NS(C)(=O)=O)cccc2OCCN[C@@H](C(C)C)C(=O)N(C)[C@@H](C(C)O)C(=O)N[C@H](Cc2ccccc2)C(=O)N1 (some centres unmarked) [Compound 1866]	> 500
CC(O)[C@H]1C(=O)N[C@H](Cc2ccccc2)C(=O)N[C@H](C)CCc2ccc(F)cc2O[C@H](C)CN[C@@H](C2(C)CC2)C(=O)N1C (some centres unmarked) [Compound 1869]	10 to 100
CC(O)[C@H]1C(=O)N[C@H](Cc2ccc(F)cc2)C(=O)N[C@H](C)CCc2ccc(F)cc2O[C@H](C)CN[C@@H](C2(C)CC2)C(=O)N1C (some centres unmarked) [Compound 1870]	10 to 100
CC(O)[C@H]1C(=O)N[C@H](Cc2ccc(Cl)cc2)C(=O)N[C@H](C)CCc2ccc(F)cc2O[C@H](C)CN[C@@H](C2(C)CC2)C(=O)N1C (some centres unmarked) [Compound 1871]	10 to 100
CC(O)[C@H]1C(=O)N[C@H](Cc2ccc3ccccc3c2)C(=O)NCCCc2cccnc2OCCN[C@@H](C2(C)CC2)C(=O)N1C (some centres unmarked) [Compound 1880]	1 to 10
CC(C)[C@@H]1NCCOc2cc(F)ccc2CCC(CC(F)(F)F)NC(=O)[C@@H](Cc2c[nH]c3ccccc23)NC(=O)[C@H](C(C)O)N(C)C1=O (some centres unmarked) [Compound 1885]	100 to 500
CC[C@@H]1CCc2c(cccc2C(F)(F)F)OCCN[C@@H](C(C)C)C(=O)N(C)[C@@H](C(C)O)C(=O)N[C@H](Cc2ccccc2)C(=O)N1 (some centres unmarked) [Compound 1888]	> 500
CC[C@@H]1CCc2c(cccc2C(F)(F)F)OCCN[C@@H](C(C)C)C(=O)N(C)[C@@H](C(C)O)C(=O)N[C@H](Cc2c[nH]c3ccccc23)C(=O)N1 (some centres unmarked) [Compound 1891]	100 to 500
CC[C@@H]1CCc2c(cccc2C(F)(F)F)OCCN[C@@H](C(C)C)C(=O)N(C)[C@@H](C(C)O)C(=O)N[C@H](Cc2ccc(F)cc2)C(=O)N1 (some centres unmarked) [Compound 1892]	> 500
CC[C@@H]1CCc2c(C#N)cccc2OCCN[C@@H](C2(C)CC2)C(=O)N(C)[C@@H](C(C)O)C(=O)N[C@H](Cc2ccccc2)C(=O)N1 (some centres unmarked) [Compound 1895]	100 to 500
CC[C@@H]1CCc2c(C#N)cccc2OCCN[C@@H](C(C)C)C(=O)N(C)[C@@H](C(C)O)C(=O)N[C@H](Cc2ccc(F)cc2)C(=O)N1 (some centres unmarked) [Compound 1897]	100 to 500
CC(O)[C@H]1C(=O)N[C@H](Cc2ccccc2)C(=O)N[C@H](C)CCc2cccnc2OCCN[C@@H](C2(C)CC2)C(=O)N1C (some centres unmarked) [Compound 1907]	10 to 100
CC[C@@H]1CCc2c(cccc2C(F)(F)F)OCCN[C@@H](C2(C)CC2)C(=O)N(C)[C@@H](C(C)O)C(=O)N[C@H](Cc2ccccc2)C(=O)N1 (some centres unmarked) [Compound 1912]	> 500
CC[C@@H]1CCc2ccc(F)cc2OCCN[C@@H](C2(C)CC2)C(=O)N(C)[C@@H](C(C)O)C(=O)N[C@H](Cc2ccc(F)cc2)C(=O)N1 (some centres unmarked) [Compound 1913]	10 to 100
CC(O)C1C(=O)NC(Cc2ccccc2)C(=O)NC(CC(F)(F)F)CCc2ccc(F)cc2OCCNC(C2(C)CC2)C(=O)N1C (centres unmarked) [Compound 1921]	100 to 500

Second part, the molecule after the results:

IC50 [nM]	Compound
100 to 500	CC[C@@H]1CCc2c(C#N)cccc2OCCN[C@@H](C(C)C)C(=O)N(C)[C@@H](C(C)O)C(=O)N[C@H](Cc2ccccc2)C(=O)N1 (some centres unmarked) [Compound 1889]
100 to 500	CC[C@@H]1CCc2c(C#N)cccc2OCCN[C@@H](C(C)C)C(=O)N(C)[C@@H](C(C)O)C(=O)N[C@H](Cc2c[nH]c3ccccc23)C(=O)N1 (some centres unmarked) [Compound 1896]
10 to 100	CC(C)[C@@H]1NCCOc2ncccc2CC[C@@H](C)NC(=O)[C@@H](Cc2ccccc2)NC(=O)[C@H](C(C)O)N(C)C1=O (some centres unmarked) [Compound 1906]
